The molecules below were run against T1, Sphingolipid delta(4)-desaturase DES1 (Homo sapiens, UniProt O15121) (assay: Des1 Activity Assays: Jurkat clone E6-1 cells were grown and then seeded at 10^6 cells/mL in a 96-well plate (400 μL in each well. The cells were administered 100 μL of cell culture media containing 50-μM NBD-C6-dihydroceramide (Des1 substrate), affording a final concentration of substrate of 10 μM. The cells were incubated with substrate at 4° C. for 30 minutes. Following the incubation at 4° C., the cell suspension was centrifuged at 1200 rpm for 3 minutes, and the cell pellet is resuspended in 400 μL of fresh media containing various concentrations of either fenretinide (known Des1 inhibitor control compound) or test article. The final concentrations of control compound and test compounds were tested in a range from 0-10 μM. The cells and compounds were incubated at 37° C. for 3 hours. Following the 3-hour incubation, the plate was centrifuged at 2500 g for 3 minutes at 4° C., followed by collection and transfer of 200 μL of the supernatant to a new 96-well plate with 300 μL of methanol an containing appropriate internal standards for liquid chromatography/tandem mass spectroscopy (LC/MS/MS) analysis (internal standard: 500 nM labetalol and 100 nM alprazolam). The samples were vortexed for 2 minutes followed by centrifugation at 3,220 g for 20 minutes. Following centrifugation, 200 μL of the supernatant was transferred to a new 96-well plate for LC-MS/MS analysis to determine the amount of NBD-C6-ceramide (Des1 product) produced. The assay was typically performed in duplicate. A reduction of at least 30% compared to vehicle control (0 μM test article) is indicative of an active compound, and a reduction of 75% compared to vehicle control is preferred.).
T1 sequence (O15121 whole entry): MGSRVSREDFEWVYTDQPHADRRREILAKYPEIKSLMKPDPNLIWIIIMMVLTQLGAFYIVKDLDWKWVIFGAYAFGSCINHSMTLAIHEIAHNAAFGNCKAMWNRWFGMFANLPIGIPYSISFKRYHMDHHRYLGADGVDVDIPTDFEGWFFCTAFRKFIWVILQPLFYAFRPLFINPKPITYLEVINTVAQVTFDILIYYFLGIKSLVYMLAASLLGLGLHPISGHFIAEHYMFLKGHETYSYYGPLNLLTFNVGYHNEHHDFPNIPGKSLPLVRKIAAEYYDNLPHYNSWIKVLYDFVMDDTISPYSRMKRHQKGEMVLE
Format: cell-based

| IC50 | Compound |
| --- | --- |
| 130 nM | O=C(Nc1ccc(O)cn1)c1ccc(-c2cccnc2)cc1 |
| 4500 nM | O=C(Cc1ccccc1)Nc1ccc(O)cn1 |
| 3.9 nM | O=C(CC1CCN(c2ccc(Cl)cn2)CC1)Nc1ccc(O)cn1 |
